Laboratory results published in patent publication US20230104315A1, “METHOD OF IDENTIFYING EXTRACHROMOSOMAL DNA SIGNATURES” (Boundless Bio, Inc., priority 2020, published 2023).

Tested on: SNU16 cells
Assay: ecDNA copy number from exome data of SNU16 cells under sequential infigratinib and erlotinib treatment
Assay type: cell-based, human
Conditions: FIG. 19; for MYC and PDHX ecDNA copy numbers: 1 μM infigratinib up to 12 weeks, followed by 5 μM erlotinib up to four weeks; for EGFR ecDNA copy number: 1 μM infigratinib, followed by 5 μM erlotinib
Description: Exomes were prepared using Human Core Exome kit (Twist Bioscience) and sequenced on an Illumina platform with 2×150 paired-end read configuration.
Sequencing data was processed according to genome analysis tool kit (GATK) recommended practices (see gatk.groadinstitute.org/hc/en-us/articles/30035894731-Somatic-short-variant-discovery-SVNs-Indels-). Briefly, raw reads were aligned to the human genome (version GRCh37) using Burrows-Wheeler aligner (BWA) […] exact match (MEM). Small somatic variations were then extracted using Mutect2 (GATK v4.1.9.0) and filtered using FilterMutectCalls.
A culture of SNU16 cells was subjected to a sequence of treatments, starting with infigratinib and followed with erlotinib. Exome data was obtained from these cells at various time points during this experiment: before treatment with infigratinib, two weeks into treatment with 1 μM infigratinib, after 12 weeks of treatment with 1 μM infigratinib, before treatment with erlotinib, two weeks into treatment with 5 μM erlotinib, and four weeks into treatment with 5 μM erlotinib. VCF files produced by GATK Mutect2 were used to calculate rates of substitutions, insertions, and deletions in one million nucleotide-long genomic windows over the entire autosomal genome. Mean coverage depth was estimated by averaging depth for all mutations in that particular genomic window as reported in the VCF file.

C#Cc1cccc(Nc2ncnc3cc(OCCOC)c(OCCOC)cc23)c1 [erlotinib]
MYC and PDHX ecDNA copy numbers: mostly stable
EGFR ecDNA copy number: went back down

CCN1CCN(c2ccc(Nc3cc(N(C)C(=O)Nc4c(Cl)c(OC)cc(OC)c4Cl)ncn3)cc2)CC1 [infigratinib]
MYC and PDHX ecDNA copy numbers: mostly stable
EGFR ecDNA copy number: dramatically increased
FGFR2 ecDNA copy number (during treatment with 1 μM infigratinib): moderately decreased
